IC50 data for 26 compounds are collected here from patent US9145392B2, “Imidazole amines as modulators of kinase activity” (Merck Patent GmbH, priority 2011, dated 2015).

The target of assay [1] is P70S6K (T412E mutant) (Homo sapiens (Human), UniProt P23443, T412E). Briefly: P70S6K enzyme assay. The settings on record: read-out: IC50 p70S6K. The class given is biochemical. Put shortly: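 Read-out is the substrate/phosphopeptide ratio from mobility-shift electrophoresis on a LabChip 3000.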
For assay [2], the target named is His-AKT (Full Length) (Homo sapiens (Human), UniProt P31749). The experiment in a line: AKT enzyme assay. The settings on record: read-out: IC50 AKT. The class given is biochemical.
His-AKT (Full Length), sequence (P31749 whole entry): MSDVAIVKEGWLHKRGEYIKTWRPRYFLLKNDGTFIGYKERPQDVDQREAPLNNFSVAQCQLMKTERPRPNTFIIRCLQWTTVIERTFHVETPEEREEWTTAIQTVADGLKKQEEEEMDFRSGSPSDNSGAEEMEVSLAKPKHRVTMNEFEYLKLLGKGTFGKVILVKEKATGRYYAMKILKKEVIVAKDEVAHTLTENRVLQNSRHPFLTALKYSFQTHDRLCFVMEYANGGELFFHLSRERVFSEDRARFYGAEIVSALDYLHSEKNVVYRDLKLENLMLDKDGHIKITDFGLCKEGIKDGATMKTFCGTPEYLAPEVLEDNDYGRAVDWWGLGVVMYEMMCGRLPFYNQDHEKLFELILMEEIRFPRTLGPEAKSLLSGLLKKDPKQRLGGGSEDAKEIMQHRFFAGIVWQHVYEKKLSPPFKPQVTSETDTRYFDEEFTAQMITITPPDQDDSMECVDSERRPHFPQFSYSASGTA

P70S6K (T412E mutant), sequence (P23443 whole entry T412E): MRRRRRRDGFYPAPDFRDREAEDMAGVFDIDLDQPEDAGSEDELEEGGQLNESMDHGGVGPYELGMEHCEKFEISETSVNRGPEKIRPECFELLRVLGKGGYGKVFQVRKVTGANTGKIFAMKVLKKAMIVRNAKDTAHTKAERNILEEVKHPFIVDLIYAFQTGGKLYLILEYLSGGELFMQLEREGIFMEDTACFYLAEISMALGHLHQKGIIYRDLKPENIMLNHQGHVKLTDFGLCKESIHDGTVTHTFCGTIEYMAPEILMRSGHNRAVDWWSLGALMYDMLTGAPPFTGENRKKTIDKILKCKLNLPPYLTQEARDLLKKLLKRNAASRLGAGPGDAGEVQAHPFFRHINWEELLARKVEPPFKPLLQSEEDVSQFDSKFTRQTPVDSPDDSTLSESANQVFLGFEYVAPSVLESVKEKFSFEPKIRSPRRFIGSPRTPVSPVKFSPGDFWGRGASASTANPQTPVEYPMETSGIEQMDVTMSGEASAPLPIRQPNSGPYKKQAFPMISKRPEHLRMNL

What is called IC50 is the concentration needed to halve the response being measured. With `NC(=O)c1c(N)ncnc1N1CCC(c2nc(-c3ccc(OC(F)F)cc3)cn2CCN2CCC2)CC1` [Compound 81, 4-Amino-6-{4-[1-(2-azetidin-1-yl-ethyl)-4-(4-difluoromethoxy-phenyl)-1H-imidazol-2-yl]-piperidin-1-yl}-pyrimidine-5-carboxylic acid amide], the IC50 in assay [1] was found to be 98 nM; in assay [2], 15000 nM.
The matching figures for `Nc1ncnc(N2CCC(c3nc(-c4ccc(C(F)(F)F)cc4)cn3CCN3CCCC3)CC2)c1C1CCC1` [Compound 259]: 37 nM and 430 nM.
The matching figures for `Cc1cc(-c2cn(CCNCC(C)C)c(C3CCN(c4ncnc(N)c4C#N)CC3)n2)ccc1F` [Compound 390, 4-Amino-6-{4-[4-(4-fluoro-3-methyl-phenyl)-1-(2-isobutylamino-ethyl)-1H-imidazol-2-yl]-piperidin-1-yl}-pyrimidine-5-carbonitrile]: 1.9 nM and 1.4 nM.
For `COc1ccc(-c2cn(CCN3CCC3)c(C3CCN(c4ncnc(N)c4C(N)=O)CC3)n2)cc1F` [Compound 345] the same measures were 100 nM and 13000 nM.
Regarding `CC(C)c1cc(-c2cn(CCN3CCC3)c(C3CCN(c4ncnc(N)c4C#N)CC3)n2)ccn1` [Compound 317], the 50% inhibitory concentration (IC50) in assay [1] is 1.7 nM; in assay [2], 11 nM.
For `CC(C)c1cc(-c2cn(CCN3CCC3)c(C3CCN(c4ncnc(N)c4C(N)=O)CC3)n2)ccn1` [Compound 332] the same measures were 3.8 nM and 37 nM.
The matching figures for `NC(=O)c1c(N)ncnc1N1CCC(c2nc(-c3ccc(F)cc3)cn2CCN2CCCC2)CC1` [Compound 333]: 21 nM and 380 nM.
The matching figures for `CCc1c(N)ncnc1N1CCC(c2nc(-c3ccc(F)c(F)c3)cn2CCN2CC(F)C2)CC1` [Compound 199, 6-(4-{4-(3,4-Difluoro-phenyl)-1-[2-(3-fluoro-azetidin-1-yl)-ethyl]-1H-imidazol-2-yl}-piperidin-1-yl)-5-ethyl-pyrimidin-4-ylamine]: 12 nM and 385 nM.
For `CC(C)Oc1c(N)ncnc1N1CCC(c2nc(-c3ccc(F)c(Cl)c3)cn2CCN2CCCC2)CC1` [Compound 290], the IC50 amounted to 1.3 nM in assay [1] and 2 nM in assay [2].
For `Nc1ncnc(N2CCC(c3nc(-c4ccc(F)c(C(F)(F)F)c4)cn3CCN3CCC3)CC2)c1[N+](=O)[O-]` [Compound 283] the same measures were 1.4 nM and 2.7 nM.
The matching figures for `N#Cc1c(N)ncnc1N1CCC(c2nc(-c3ccc(F)c(C(F)(F)F)c3)cn2CC2CNC2)CC1` [Compound 141, 4-amino-6-(4-(1-(azetidin-3-ylmethyl)-4-(4-fluoro-3-(trifluoromethyl)phenyl)-1H-imidazol-2-yl)piperidin-1-yl)pyrimidine-5-carbonitrile]: 13 nM and 64.5 nM.
For `CCN(CC)CCn1cc(-c2ccc(F)c(C)c2)nc1C1CCN(c2ncnc(N)c2C#N)CC1` [Compound 326] the same measures were 2.7 nM and 2.5 nM.
As to `Cn1cc(-c2ccc(F)c(C(F)(F)F)c2)nc1C1CCN(c2ncnc(N)c2-c2cccc(C#N)c2)CC1` [Compound 15, 3-(4-Amino-6-{4-[4-(4-fluoro-3-trifluoromethyl-phenyl)-1-methyl-1H-imidazol-2-yl]-piperidin-1-yl}-pyrimidin-5-yl)-benzonitrile], the IC50 in assay [1] turned out to be 11 nM; in assay [2], 150 nM.
`Nc1ncnc(N2CCC(c3nc(-c4ccc(F)c(C(F)(F)F)c4)cn3CCN3CCCC3)CC2)c1-c1ccc(C(=O)O)cc1` [Compound 225]: the IC50 in assay [1] was 5.8 nM; in assay [2], 12 nM.
For `Cc1ccc(-c2cn(CCN3CCC3)c(C3CCN(c4ncnc(N)c4C#N)CC3)n2)cc1F` [Compound 320] the same measures were 1.6 nM and 48 nM.
For `Nc1ncnc(N2CCC(c3nc(-c4ccnc(C(F)(F)F)c4)cn3CCN3CCC3)CC2)c1-c1cnoc1` [Compound 168, 6-(4-(1-(2-(azetidin-1-yl)ethyl)-4-(2-(trifluoromethyl)pyridin-4-yl)-1H-imidazol-2-yl)piperidin-1-yl)-5-(isoxazol-4-yl)pyrimidin-4-amine] the same measures were 2.9 nM and 2.7 nM.
For `Cc1cc(-c2cn(CCO)c(C3CCN(c4ncnc(N)c4C#N)CC3)n2)ccc1F` [Compound 384, 4-Amino-6-{4-[4-(4-fluoro-3-methyl-phenyl)-1-(2-hydroxy-ethyl)-1H-imidazol-2-yl]-piperidin-1-yl}-pyrimidine-5-carbonitrile], the IC50 in assay [1] amounted to 1.8 nM; in assay [2], 440 nM.
The matching figures for `Nc1ncnc(N2CCC(c3nc(-c4ccc(F)c(C(F)(F)F)c4)cn3CCN3CCCC3)CC2)c1C=O` [Compound 287]: 0.6 nM and 1 nM.
For `CCc1c(N)ncnc1N1CCC(c2nc(-c3ccc(C(F)(F)F)c(F)c3)cn2CCN2CCC(F)(F)CC2)CC1` [Compound 247] the same measures were 5.5 nM and 520 nM.
For `Cc1cc(-c2cn(CCNC(C)C)c(C3CCN(c4ncnc(N)c4C(N)=O)CC3)n2)ccc1F` [Compound 386, 4-Amino-6-{4-[4-(4-fluoro-3-methyl-phenyl)-1-(2-isopropylamino-ethyl)-1H-imidazol-2-yl]-piperidin-1-yl}-pyrimidine-5-carboxylic acid amide] the same measures were 2.4 nM and 15 nM.
With `CCc1c(N)ncnc1N1CCC(c2nc(-c3cccc(OC(F)(F)F)c3)cn2CCN2CCC2)CC1` [Compound 100, 6-(4-(1-(2-(azetidin-1-yl)ethyl)-4-(3-(trifluoromethoxy)phenyl)-1H-imidazol-2-yl)piperidin-1-yl)-5-ethylpyrimidin-4-amine], the IC50 came to 2.3 nM in assay [1] and 16 nM in assay [2].
As for `CCc1c(N)ncnc1N1CCC(c2nc(-c3ccc(F)cc3)cn2CCN2CC(F)C2)CC1` [Compound 200, 5-Ethyl-6-{4-[1-[2-(3-fluoro-azetidin-1-yl)-ethyl]-4-(4-fluoro-phenyl)-1H-imidazol-2-yl]-piperidin-1-yl}-pyrimidin-4-ylamine], the results for the half-inhibitory concentration (IC50) in assay [1] and in assay [2] were 21 nM and 640 nM, respectively.
The matching figures for `C=Cc1c(N)ncnc1N1CCC(c2nc(-c3ccc(F)c(F)c3)cn2CCN2CCCC2)CC1` [Compound 242]: 1.4 nM and 9.7 nM.
The matching figures for `Cc1cc(-c2cn(CCN3CCCC3)c(C3CCN(c4ncnc(N)c4C#N)CC3)n2)ccc1F` [Compound 324]: 2.8 nM and 3.5 nM.
Consider `Nc1ncnc(N2CCC(c3nc(-c4ccc(F)c(C(F)(F)F)c4)cn3CCN3CCC3)CC2)c1-c1cnoc1` [Compound 109, 6-(4-(1-(2-(azetidin-1-yl)ethyl)-4-(4-fluoro-3-(trifluoromethyl)phenyl)-1H-imidazol-2-yl)piperidin-1-yl)-5-(isoxazol-4-yl)pyrimidin-4-amine], for which the figures for the concentration for half-maximal inhibition (IC50) in assay [1] and in assay [2] were 0.9 nM and 1.6 nM, respectively.
The matching figures for `Nc1ncnc(N2CCC(c3nc(-c4ccc(F)c(Cl)c4)cn3CCN3CCCC3)CC2)c1C1CCC1` [Compound 262]: 4 nM and 4.9 nM.
